Laboratory results reported in paper PMC3017236 (Clinical cancer research : an official journal of the …, 2010).
“Also recorded” adds a separate entry of the source. Where two headings read alike, the source gives them in different places.

What was measured:
[1] = mouse, in vivo
[2] = test system: Bcrp1/Abcg2; conditions: mouse, in vivo
[3] = test system: P-gp (Mdr1a/b); conditions: mouse, in vivo, po, 50 mg/kg
[4] = test system: P-gp (Mdr1a/b) and Bcrp1/Abcg2; conditions: mouse, in vivo
[5] = test system: Mrp4/Abcc4; experiment: Brain microdialysis; conditions: Abcc4−/− mice, 50 mg/kg oral erlotinib, mean ± SD
[6] = target: T1, organic cation transporter-2 (OCT2) (Homo sapiens, UniProt O15244); experiment: Uptake in HEK-293 cells transfected with OCT2 vs empty vector; conditions: HEK-293/OCT2, 5 minutes incubation, 0.5 μg/mL
T1 sequence (O15244 1-555): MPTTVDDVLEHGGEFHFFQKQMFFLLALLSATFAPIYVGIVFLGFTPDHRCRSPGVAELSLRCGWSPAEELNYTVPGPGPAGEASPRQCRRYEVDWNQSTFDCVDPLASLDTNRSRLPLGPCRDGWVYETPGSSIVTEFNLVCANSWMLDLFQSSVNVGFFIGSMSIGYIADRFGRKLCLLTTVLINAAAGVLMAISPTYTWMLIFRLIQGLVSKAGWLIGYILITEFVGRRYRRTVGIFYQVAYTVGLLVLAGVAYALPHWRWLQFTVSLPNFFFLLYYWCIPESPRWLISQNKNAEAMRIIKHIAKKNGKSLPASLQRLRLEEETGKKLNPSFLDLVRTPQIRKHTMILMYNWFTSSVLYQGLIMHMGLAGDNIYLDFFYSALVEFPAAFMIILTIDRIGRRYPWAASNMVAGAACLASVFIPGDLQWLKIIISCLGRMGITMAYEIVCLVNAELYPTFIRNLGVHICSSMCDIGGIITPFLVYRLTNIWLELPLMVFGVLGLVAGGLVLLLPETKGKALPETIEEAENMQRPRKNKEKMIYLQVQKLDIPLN

[7] = target: human ABCB1 (P-gp/MDR1) (Homo sapiens, UniProt P08183); experiment: Intracellular accumulation in LLCPK1-MDR1 cells vs LLCPK1 cells
Chain of human ABCB1 (P-gp/MDR1) (P08183 whole entry): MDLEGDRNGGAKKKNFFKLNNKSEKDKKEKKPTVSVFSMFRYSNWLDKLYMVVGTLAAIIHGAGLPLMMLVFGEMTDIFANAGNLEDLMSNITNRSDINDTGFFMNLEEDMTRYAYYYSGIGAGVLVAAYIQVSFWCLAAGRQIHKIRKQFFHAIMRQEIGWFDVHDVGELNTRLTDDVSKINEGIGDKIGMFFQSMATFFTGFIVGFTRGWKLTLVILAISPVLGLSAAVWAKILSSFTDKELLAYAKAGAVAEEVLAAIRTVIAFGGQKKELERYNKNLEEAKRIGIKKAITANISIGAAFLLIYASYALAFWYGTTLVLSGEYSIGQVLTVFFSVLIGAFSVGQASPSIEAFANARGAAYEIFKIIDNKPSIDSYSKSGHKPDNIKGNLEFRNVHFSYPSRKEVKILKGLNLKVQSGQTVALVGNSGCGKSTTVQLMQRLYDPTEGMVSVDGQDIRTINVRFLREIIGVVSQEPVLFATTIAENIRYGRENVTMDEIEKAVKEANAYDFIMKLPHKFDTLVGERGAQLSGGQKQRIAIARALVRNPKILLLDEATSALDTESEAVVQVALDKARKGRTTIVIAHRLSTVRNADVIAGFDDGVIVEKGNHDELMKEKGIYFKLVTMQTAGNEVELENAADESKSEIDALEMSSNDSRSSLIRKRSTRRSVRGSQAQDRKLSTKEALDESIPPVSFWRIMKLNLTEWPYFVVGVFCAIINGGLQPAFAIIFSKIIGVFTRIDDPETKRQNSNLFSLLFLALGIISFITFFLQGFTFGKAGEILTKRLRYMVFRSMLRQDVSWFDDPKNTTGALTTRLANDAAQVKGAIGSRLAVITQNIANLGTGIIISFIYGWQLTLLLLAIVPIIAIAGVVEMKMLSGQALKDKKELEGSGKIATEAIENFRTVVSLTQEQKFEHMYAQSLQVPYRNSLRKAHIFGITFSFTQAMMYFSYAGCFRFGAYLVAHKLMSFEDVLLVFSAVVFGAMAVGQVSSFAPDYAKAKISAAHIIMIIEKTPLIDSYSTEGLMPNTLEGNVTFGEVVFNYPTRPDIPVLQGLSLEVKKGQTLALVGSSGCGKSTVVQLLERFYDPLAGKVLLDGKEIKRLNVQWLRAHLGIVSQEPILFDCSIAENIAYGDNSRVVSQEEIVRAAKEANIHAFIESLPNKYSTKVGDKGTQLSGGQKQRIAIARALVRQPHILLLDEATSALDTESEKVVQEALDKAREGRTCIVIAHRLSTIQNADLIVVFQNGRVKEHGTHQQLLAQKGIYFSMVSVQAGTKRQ

[8] = assay type: in vivo, mouse; conditions: for Mean AUC0-24,Plasma compared to wild-type mice: mouse, in vivo, po, 50 mg/kg
[9] = target: T2, OAT2 (Homo sapiens, UniProt Q9Y694); experiment: Uptake in HEK-293 cells transfected with OAT2 vs empty vector; assay type: in vitro ADME; conditions: HEK-293/OAT2
T2 sequence (Q9Y694 1-548): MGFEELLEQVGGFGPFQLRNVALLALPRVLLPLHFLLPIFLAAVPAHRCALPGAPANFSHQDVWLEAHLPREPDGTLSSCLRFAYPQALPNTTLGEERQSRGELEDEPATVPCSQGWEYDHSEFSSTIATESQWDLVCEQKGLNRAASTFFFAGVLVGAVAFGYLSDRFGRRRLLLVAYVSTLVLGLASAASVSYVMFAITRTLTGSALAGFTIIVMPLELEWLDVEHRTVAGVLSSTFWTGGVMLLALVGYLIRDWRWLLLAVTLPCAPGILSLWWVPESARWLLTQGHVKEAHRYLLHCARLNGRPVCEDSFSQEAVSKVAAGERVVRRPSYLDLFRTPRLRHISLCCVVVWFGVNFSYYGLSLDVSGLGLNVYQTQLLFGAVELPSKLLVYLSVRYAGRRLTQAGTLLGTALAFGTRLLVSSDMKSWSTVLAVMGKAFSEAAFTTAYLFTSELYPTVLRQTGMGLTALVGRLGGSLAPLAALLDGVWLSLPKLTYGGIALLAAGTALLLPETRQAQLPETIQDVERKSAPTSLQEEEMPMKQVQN

[10] = target: T3, OCT1 (Homo sapiens, UniProt O15245); experiment: Uptake in HEK-293 cells transfected with OCT1 vs empty vector; assay type: in vitro ADME; conditions: HEK-293/OCT1
T3 sequence (O15245 1-554): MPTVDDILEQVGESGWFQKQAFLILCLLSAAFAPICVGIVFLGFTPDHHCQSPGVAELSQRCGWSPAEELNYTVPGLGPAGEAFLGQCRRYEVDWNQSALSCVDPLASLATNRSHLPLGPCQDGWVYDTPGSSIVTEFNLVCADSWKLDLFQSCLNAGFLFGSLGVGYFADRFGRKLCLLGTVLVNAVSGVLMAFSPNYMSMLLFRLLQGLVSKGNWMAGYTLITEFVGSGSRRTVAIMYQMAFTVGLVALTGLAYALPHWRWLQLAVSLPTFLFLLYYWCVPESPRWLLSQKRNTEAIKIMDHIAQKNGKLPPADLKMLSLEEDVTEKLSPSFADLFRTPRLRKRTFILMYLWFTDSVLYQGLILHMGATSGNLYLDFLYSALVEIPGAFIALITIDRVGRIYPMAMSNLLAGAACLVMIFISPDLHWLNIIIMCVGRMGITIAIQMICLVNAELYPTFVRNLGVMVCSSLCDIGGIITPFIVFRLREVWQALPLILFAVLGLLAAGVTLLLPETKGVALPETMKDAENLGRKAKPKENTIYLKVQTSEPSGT

[11] = test system: Bcrp1/Abcg2; experiment: in vivo; conditions: mouse, brain ECF (relative to unbound plasma), po, 50 mg/kg
[12] = test system: P-gp (Mdr1a/b) and Bcrp1/Abcg2; experiment: in vivo; conditions: mouse, brain ECF (relative to unbound plasma), po, 50 mg/kg
[13] = test system: Mrp4/Abcc4; experiment: in vivo; conditions: mouse, brain ECF (relative to unbound plasma), po, 50 mg/kg
[14] = in vitro; conditions: mouse, plasma

C#Cc1cccc(Nc2ncnc3cc(OCCOC)c(OCCO)cc23)c1 [OSI-420]
Penetration of unbound drug from plasma across the BBB [1]: 7%
PBrain (brain ECF-to-unbound plasma AUC0-24 ratio) ([1]; po, 50 mg/kg): 0.07±0.02
Brain penetration relative to wild-type mice [2]: 7 fold
PBrain (brain ECF-to-unbound plasma AUC0-24 ratio) [3]: 0.04±0.02
Brain penetration relative to wild-type mice [4]: 4 fold
PBrain (brain ECF-to-unbound plasma AUC0-24 ratio) [5]: 0.08 ± 0.06
Uptake vs empty vector HEK-293 cells [6]: significantly increased
Effect of elacridar on intracellular accumulation ([7]; LLCPK1-MDR1 cells, pre-incubation 30 minutes with elacridar (4 μM)): significantly increased
Intracellular accumulation vs control cells ([7]; LLCPK1-MDR1 vs LLCPK1, 0.5 μg/mL, 37°C): lower accumulation; also recorded: significantly reduced

C#Cc1cccc(Nc2ncnc3cc(OCCOC)c(OCCOC)cc23)c1 [erlotinib, Erlotinib]
Mean AUC0-24,Plasma compared to wild-type mice ([8]; Abcc4−/−): 0.9 fold
Mean AUC0-24,Plasma compared to wild-type mice ([8]; Abcg2−/−): 1.25 fold
Mean AUC0-24,Plasma compared to wild-type mice ([8]; Mdr1a/b−/−): 0.9 fold
Mean AUC0-24,Plasma compared to wild-type mice ([8]; Mdr1a/b−/−Abcg2−/−): 1.3 fold
Tolerability of single dose ([8]; single oral dose 50 mg/kg, all strains): tolerated well
Transport by transporter [9]: not found to transport
Transport by transporter [10]: not found to transport
Kp [11]: 1.4 ± 0.9
Kp [12]: 0.7 ± 0.26
Kp [13]: 0.32 ± 0.24
fraction unbound at 10 h [14]: 0.048
Uptake vs empty vector HEK-293 cells [6]: significantly increased
Uptake vs empty vector HEK-293 cells ([6]; listed as Erlotinib): higher
